Converted amounts (≈) assume the structure as drawn.
Columns and labels:
Staphylococcus aureus [1] = test: Antibacterial activity against methicillin and ciprofloxacin-resistant Staphylococcus aureus 1721 for 18 to 20 hrs by broth microdilution method; format: functional
Enterococcus faecium = test: Antibacterial activity against Enterococcus faecium for 18 to 20 hrs by broth microdilution method; format: functional
[2] = Inhibition of Staphylococcus aureus topoisomerase 4 by fluorescence analysis
Staphylococcus aureus [3] = test: Antibacterial activity against methicillin-resistant Staphylococcus aureus 1118 for 18 to 20 hrs by broth microdilution method; format: functional
DNA gyrase subunit B = DNA gyrase subunit B (Staphylococcus aureus, UniProt P0A0K8); test: Inhibition of Staphylococcus aureus Gyrase B ATPase activity by fluorescence analysis
Streptococcus pneumoniae [4] = test: Antibacterial activity against Streptococcus pneumoniae for 18 to 24 hrs by broth microdilution method; format: functional
Staphylococcus aureus [5] = test: Antibacterial activity against methicillin-sensitive Staphylococcus aureus 42 for 18 to 20 hrs by broth microdilution method; format: functional
Enterococcus faecalis = test: Antibacterial activity against Enterococcus faecalis for 18 to 20 hrs by broth microdilution method; format: functional
[6] = Clearance in mouse at 2 mg/kg, iv by LC-MS/MS analysis; format: ADME, organism-based; conditions: in vivo
[7] = Half-life in mouse at 2 mg/kg, iv by LC-MS/MS analysis; format: ADME, organism-based; conditions: in vivo
Mus musculus = test: Dose-normalized AUC in mouse at 2 mg/kg, iv by LC-MS/MS analysis; format: ADME, organism-based; conditions: in vivo
[8] = Volume of distribution at steady state in mouse at 2 mg/kg, iv by LC-MS/MS analysis; format: ADME, organism-based; conditions: in vivo, read-out: Vdss
Streptococcus pneumoniae [9] = test: Antibacterial activity against Streptococcus pneumoniae 402 infected in sc dosed mouse assessed as reduction in 3 log CFU in lung compound administered as BID for 1 day measured 24 hrs after last dose; format: functional
Streptococcus pneumoniae [10] = test: Antibacterial activity against Streptococcus pneumoniae 402 infected in sc dosed mouse assessed as reduction in 2 log CFU in lung compound administered as BID for 1 day measured 24 hrs after last dose; format: functional

Sequence of DNA gyrase subunit B (P0A0K8 whole entry): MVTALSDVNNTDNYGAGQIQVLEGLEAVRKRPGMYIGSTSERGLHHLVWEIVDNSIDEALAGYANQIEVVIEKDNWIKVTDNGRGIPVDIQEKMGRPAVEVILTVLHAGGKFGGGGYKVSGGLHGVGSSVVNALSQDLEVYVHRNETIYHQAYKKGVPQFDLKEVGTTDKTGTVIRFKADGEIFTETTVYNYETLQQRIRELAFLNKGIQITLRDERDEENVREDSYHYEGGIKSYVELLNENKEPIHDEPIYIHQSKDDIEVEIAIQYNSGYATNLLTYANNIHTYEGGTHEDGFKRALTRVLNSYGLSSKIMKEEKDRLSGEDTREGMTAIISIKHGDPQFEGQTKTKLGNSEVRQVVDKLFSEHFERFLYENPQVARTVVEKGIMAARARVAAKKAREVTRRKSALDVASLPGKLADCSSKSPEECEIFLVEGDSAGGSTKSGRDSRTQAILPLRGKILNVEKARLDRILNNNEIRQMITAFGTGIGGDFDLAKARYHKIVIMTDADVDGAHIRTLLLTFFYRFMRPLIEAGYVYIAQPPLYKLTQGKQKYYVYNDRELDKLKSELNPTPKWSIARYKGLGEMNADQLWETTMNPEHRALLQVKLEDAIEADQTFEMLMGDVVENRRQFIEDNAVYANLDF

Compound	MIC (Staphylococcus aureus [1]) [µg/mL]	MIC (Enterococcus faecium) [µg/mL]	IC50 [2] [nM]	MIC (Staphylococcus aureus [3]) [µg/mL]	IC50 (DNA gyrase subunit B) [nM]	MIC (Streptococcus pneumoniae [4]) [µg/mL]	MIC (Staphylococcus aureus [5]) [µg/mL]	MIC (Enterococcus faecalis) [µg/mL]	clearance [6] [mL/min/kg]	half-life [7] [min]	AUC/dose (Mus musculus) [µg·h/mL/mg/kg]	Vd [8] [L/kg]	ED (Streptococcus pneumoniae [9]) [mg/kg]	ED (Streptococcus pneumoniae [10]) [mg/kg]
CCCc1cccc2c(-c3cnc(-c4ccnc(C(=O)O)c4)s3)n[nH]c12	> 8	> 8	> 1000	> 8	11	1 (≈ 2.74 µM)	> 8	> 8	–	–	–	–	–	–
CCCc1c(OC)ccc2c(-c3cnc(-c4ccc(C(=O)O)c(F)c4)s3)n[nH]c12	0.125 (≈ 0.304 µM)	0.03 (≈ 0.0729 µM)	–	0.125 (≈ 0.304 µM)	15	0.125 (≈ 0.304 µM)	0.06 (≈ 0.146 µM)	0.03 (≈ 0.0729 µM)	19	18.6	0.893	0.32	103.7	60.6
CCCc1c(O)ccc2c(-c3cnc(-c4cnc(C(=O)O)c(O)c4)s3)n[nH]c12	2 (≈ 5.05 µM)	0.25 (≈ 0.631 µM)	–	4 (≈ 10.1 µM)	13	0.25 (≈ 0.631 µM)	1 (≈ 2.52 µM)	0.125 (≈ 0.315 µM)	–	–	–	–	–	–
CCCc1cccc2c(-c3cnc(-c4ccc(C(=O)NCCN5CCCCC5)nc4)s3)n[nH]c12	2 (≈ 4.21 µM)	> 8	> 2000	1 (≈ 2.11 µM)	20	> 8	2 (≈ 4.21 µM)	> 8	–	–	–	–	–	–
CCCc1cccc2c(-c3cnc(-c4ccc(CO)nc4)s3)n[nH]c12	0.06 (≈ 0.171 µM)	> 8	> 4000	0.06 (≈ 0.171 µM)	15	8 (≈ 22.8 µM)	0.06 (≈ 0.171 µM)	> 8	–	–	–	–	–	–
CCCc1cccc2c(-c3cnc(-c4ccc(COP(=O)(O)O)nc4)s3)n[nH]c12	0.5 (≈ 1.16 µM)	2 (≈ 4.65 µM)	147	0.25 (≈ 0.581 µM)	9	2 (≈ 4.65 µM)	0.25 (≈ 0.581 µM)	> 8	–	–	–	–	–	–
CCCc1cccc2c(-c3cnc(-c4cnc(C(=O)O)c(O)c4)s3)n[nH]c12	0.125 (≈ 0.329 µM)	0.125 (≈ 0.329 µM)	60	0.06 (≈ 0.158 µM)	11	0.5 (≈ 1.31 µM)	0.125 (≈ 0.329 µM)	0.125 (≈ 0.329 µM)	–	–	–	–	–	–
CCCc1cccc2c(-c3cncs3)n[nH]c12	> 32	> 32	–	> 32	6500	> 32	> 32	> 32	–	–	–	–	–	–
CCOc1cccc2c(-c3cnc(-c4ccc(C(=O)O)c(F)c4)s3)n[nH]c12	1 (≈ 2.61 µM)	2 (≈ 5.22 µM)	–	0.5 (≈ 1.3 µM)	< 8	1 (≈ 2.61 µM)	0.5 (≈ 1.3 µM)	1 (≈ 2.61 µM)	–	–	–	–	–	–
CCCOc1nccc2c(-c3cnc(-c4ccc(C(=O)O)nc4)s3)n[nH]c12	8 (≈ 21 µM)	2 (≈ 5.24 µM)	–	4 (≈ 10.5 µM)	< 8	0.06 (≈ 0.157 µM)	4 (≈ 10.5 µM)	2 (≈ 5.24 µM)	–	–	–	–	–	–
CCCc1cccc2c(-c3cnc(-c4ccc(C(=O)OC)nc4)s3)n[nH]c12	2 (≈ 5.28 µM)	> 8	> 10000	1 (≈ 2.64 µM)	29	0.125 (≈ 0.33 µM)	0.5 (≈ 1.32 µM)	> 8	–	–	–	–	–	–
CCCOc1nccc2c(-c3cnc(-c4ccc(CO)nc4)s3)n[nH]c12	0.125 (≈ 0.34 µM)	1 (≈ 2.72 µM)	–	0.25 (≈ 0.68 µM)	< 8	0.25 (≈ 0.68 µM)	0.125 (≈ 0.34 µM)	0.25 (≈ 0.68 µM)	–	–	–	–	–	–
CCCc1cccc2c(-c3cnc(-c4cnc(C(=O)OC)c(O)c4)s3)n[nH]c12	2 (≈ 5.07 µM)	2 (≈ 5.07 µM)	68	1 (≈ 2.54 µM)	< 8	1 (≈ 2.54 µM)	1 (≈ 2.54 µM)	1 (≈ 2.54 µM)	–	–	–	–	–	–
CCCc1cccc2c(-c3cnc(-c4cnc(C(=O)O)c(F)c4)s3)n[nH]c12	0.25 (≈ 0.654 µM)	0.25 (≈ 0.654 µM)	24	0.125 (≈ 0.327 µM)	< 8	0.25 (≈ 0.654 µM)	0.125 (≈ 0.327 µM)	0.25 (≈ 0.654 µM)	–	–	–	–	–	–
CCOc1nccc2c(-c3cnc(-c4cnc(C(=O)O)cc4C)s3)n[nH]c12	0.5 (≈ 1.31 µM)	0.5 (≈ 1.31 µM)	–	0.5 (≈ 1.31 µM)	< 8	0.125 (≈ 0.328 µM)	0.25 (≈ 0.655 µM)	0.25 (≈ 0.655 µM)	–	–	–	–	–	–
